Assay results published in patent US10202361B2, “Pyridazinones as herbicides” (E I DU PONT DE NEMOURS AND COMPANY, priority 2014, dated 2019).
Where two headings read alike, the source gives them in different places.

Assays:
Test in all cases: Test C pre-/postemergence greenhouse herbicide test
Format in all cases: in vivo
[1] = test system: blackgrass (Alopecurus myosuroides); details: Alopecurus myosuroides, Blackgrass, read-out: Plant response rating; for pest or weed control at 62 g/ha: 62 g ai/ha; for pest or weed control at 125 g/ha: 125 g ai/ha; for pest or weed control at 250 g/ha: 250 g ai/ha
Procedure, shortened: (§1)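 Seeds sown in loam soil–sand blend were treated preemergence; plants at 2 to 18 cm (1- to 4-leaf stage) in peat-based medium were treated postemergence. Test chemicals were formulated in a non-phytotoxic solvent mixture with surfactant. After 13 to 15 d in greenhouse, injury was rated visually versus controls, 0 (no effect) to 100 (complete control).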

[2] = test system: corn (Zea mays); details: Zea mays, Corn, read-out: Plant response rating; for plant injury at 31 g/ha: 31 g ai/ha; for plant injury at 62 g/ha: 62 g ai/ha; for plant injury at 125 g/ha: 125 g ai/ha; for plant injury at 250 g/ha: 250 g ai/ha
Procedure, shortened: as §1

[3] = test system: crabgrass, Large (large crabgrass, Digitaria sanguinalis); details: Digitaria sanguinalis, Crabgrass, Large, read-out: Plant response rating; for pest or weed control at 31 g/ha: 31 g ai/ha; for pest or weed control at 62 g/ha: 62 g ai/ha; for pest or weed control at 125 g/ha: 125 g ai/ha; for pest or weed control at 250 g/ha: 250 g ai/ha
Procedure, shortened: as §1

[4] = test system: johnsongrass (Sorghum halepense); details: Sorghum halepense, Johnsongrass, read-out: Plant response rating; for pest or weed control at 31 g/ha: 31 g ai/ha; for pest or weed control at 62 g/ha: 62 g ai/ha; for pest or weed control at 125 g/ha: 125 g ai/ha; for pest or weed control at 250 g/ha: 250 g ai/ha
Procedure, shortened: as §1

[5] = test system: lambsquarters (Chenopodium album)
Procedure, shortened: as §1

[6] = test system: nutsedge, yellow (yellow nutsedge, Cyperus esculentus); details: Cyperus, Nutsedge, Yellow, read-out: Plant response rating; for pest or weed control at 31 g/ha: 31 g ai/ha; for pest or weed control at 62 g/ha: 62 g ai/ha; for pest or weed control at 125 g/ha: 125 g ai/ha; for pest or weed control at 250 g/ha: 250 g ai/ha
Procedure, shortened: as §1

[7] = test system: oat, wild (wild oat, Avena fatua)
Procedure, shortened: as §1

[8] = test system: pigweed (Amaranthus retroflexus); details: Amaranthus retroflexus, Pigweed, read-out: Plant response rating; for pest or weed control at 31 g/ha: 31 g ai/ha; for pest or weed control at 62 g/ha: 62 g ai/ha; for pest or weed control at 125 g/ha: 125 g ai/ha; for pest or weed control at 250 g/ha: 250 g ai/ha
Procedure, shortened: as §1

[9] = test system: ragweed (common ragweed, Ambrosia elatior); details: Ambrosia artemisiifolia, Ragweed, read-out: Plant response rating; for pest or weed control at 31 g/ha: 31 g ai/ha; for pest or weed control at 62 g/ha: 62 g ai/ha; for pest or weed control at 125 g/ha: 125 g ai/ha; for pest or weed control at 250 g/ha: 250 g ai/ha
Procedure, shortened: as §1

[10] = test system: wheat (winter wheat, Triticum aestivum); details: Triticum aestivum, Wheat, read-out: Plant response rating; for plant injury at 62 g/ha: 62 g ai/ha; for plant injury at 125 g/ha: 125 g ai/ha; for plant injury at 250 g/ha: 250 g ai/ha
Procedure, shortened: as §1

[11] = post-emergence, Postemergence, 31 g ai/ha

Work on `Cc1cc(=O)n(-c2ccc(F)cc2)nc1Oc1ccnc(C(F)(F)F)c1` [Compound 14, 2-(4-fluorophenyl)-5-methyl-6-[[2-(trifluoromethyl)-4-pyridinyl]oxy]-3 (2H)-pyridazinone] yielded a pest or weed control at 31 g/ha [1, 11] of 5%, a pest or weed control at 62 g/ha ([1]; post-emergence, Postemergence) of 5% and a pest or weed control at 125 g/ha ([1]; post-emergence, Postemergence) of 5%. The pest or weed control at 250 g/ha ([1]; post-emergence, Postemergence) was 45%, the pest or weed control at 62 g/ha ([1]; pre-emergence, Preemergence) was 10% and the pest or weed control at 125 g/ha ([1]; pre-emergence, Preemergence) was 15%. It also gave a pest or weed control at 250 g/ha ([1]; pre-emergence, Preemergence) of 15%, a plant injury at 31 g/ha ([2]; post-emergence, Postemergence) of 20% and a plant injury at 62 g/ha ([2]; post-emergence, Postemergence) of 35%. The plant injury at 125 g/ha ([2]; post-emergence, Postemergence) was 40%, the plant injury at 250 g/ha ([2]; post-emergence, Postemergence) was 40% and the plant injury at 31 g/ha ([2]; pre-emergence, Preemergence) was 0%. It also gave a plant injury at 62 g/ha ([2]; pre-emergence, Preemergence) of 35%, a plant injury at 125 g/ha ([2]; pre-emergence, Preemergence) of 50% and a plant injury at 250 g/ha ([2]; pre-emergence, Preemergence) of 75%. It also gave a pest or weed control at 31 g/ha ([3]; post-emergence, Postemergence) of 10%, a pest or weed control at 62 g/ha ([3]; post-emergence, Postemergence) of 10% and a pest or weed control at 125 g/ha ([3]; post-emergence, Postemergence) of 15%. It also gave a pest or weed control at 250 g/ha ([3]; post-emergence, Postemergence) of 30%, a pest or weed control at 31 g/ha ([3]; pre-emergence, Preemergence) of 80% and a pest or weed control at 62 g/ha ([3]; pre-emergence, Preemergence) of 100%. It also gave a pest or weed control at 125 g/ha ([3]; pre-emergence, Preemergence) of 100%, a pest or weed control at 250 g/ha ([3]; pre-emergence, Preemergence) of 100% and a pest or weed control at 31 g/ha ([4]; post-emergence, Postemergence) of 10%. For the same compound, the pest or weed control at 62 g/ha ([4]; post-emergence, Postemergence) was 15%, the pest or weed control at 125 g/ha ([4]; post-emergence, Postemergence) was 25% and the pest or weed control at 250 g/ha ([4]; post-emergence, Postemergence) was 30%. It also gave a pest or weed control at 31 g/ha ([4]; pre-emergence, Preemergence) of 5%, a pest or weed control at 62 g/ha ([4]; pre-emergence, Preemergence) of 35% and a pest or weed control at 125 g/ha ([4]; pre-emergence, Preemergence) of 35%. The pest or weed control at 250 g/ha ([4]; pre-emergence, Preemergence) was 85%, the Plant response rating ([5]; Postemergence, 31 g ai/ha) was 40 and the Plant response rating ([5]; Postemergence, 62 g ai/ha) was 40. For the same compound, the Plant response rating ([5]; Postemergence, 125 g ai/ha) was 45, the Plant response rating ([5]; Postemergence, 250 g ai/ha) was 45 and the Plant response rating ([5]; Preemergence, 31 g ai/ha) was 55. It also gave a Plant response rating ([5]; Preemergence, 62 g ai/ha) of 95, a Plant response rating ([5]; Preemergence, 125 g ai/ha) of 95 and a Plant response rating ([5]; Preemergence, 250 g ai/ha) of 98. It also gave a pest or weed control at 31 g/ha ([6]; post-emergence, Postemergence) of 5%, a pest or weed control at 62 g/ha ([6]; post-emergence, Postemergence) of 5% and a pest or weed control at 125 g/ha ([6]; post-emergence, Postemergence) of 5%. It also gave a pest or weed control at 250 g/ha ([6]; post-emergence, Postemergence) of 10%, a pest or weed control at 31 g/ha ([6]; pre-emergence, Preemergence) of 0% and a pest or weed control at 62 g/ha ([6]; pre-emergence, Preemergence) of 5%. The pest or weed control at 125 g/ha ([6]; pre-emergence, Preemergence) was 25%, the pest or weed control at 250 g/ha ([6]; pre-emergence, Preemergence) was 25% and the Plant response rating ([7]; Postemergence, 31 g ai/ha) was 20. The Plant response rating ([7]; Postemergence, 62 g ai/ha) was 30, the Plant response rating ([7]; Postemergence, 125 g ai/ha) was 30 and the Plant response rating ([7]; Postemergence, 250 g ai/ha) was 30. The Plant response rating ([7]; Preemergence, 31 g ai/ha) was 0, the Plant response rating ([7]; Preemergence, 62 g ai/ha) was 0 and the Plant response rating ([7]; Preemergence, 125 g ai/ha) was 65. For the same compound, the Plant response rating ([7]; Preemergence, 250 g ai/ha) was 65, the pest or weed control at 31 g/ha ([8]; post-emergence, Postemergence) was 60% and the pest or weed control at 62 g/ha ([8]; post-emergence, Postemergence) was 65%. The pest or weed control at 125 g/ha ([8]; post-emergence, Postemergence) was 80%, the pest or weed control at 250 g/ha ([8]; post-emergence, Postemergence) was 85% and the pest or weed control at 31 g/ha ([8]; pre-emergence, Preemergence) was 100%. For the same compound, the pest or weed control at 62 g/ha ([8]; pre-emergence, Preemergence) was 100%, the pest or weed control at 125 g/ha ([8]; pre-emergence, Preemergence) was 100% and the pest or weed control at 250 g/ha ([8]; pre-emergence, Preemergence) was 100%. For the same compound, the pest or weed control at 31 g/ha ([9]; post-emergence, Postemergence) was 50%, the pest or weed control at 62 g/ha ([9]; post-emergence, Postemergence) was 50% and the pest or weed control at 125 g/ha ([9]; post-emergence, Postemergence) was 60%. It also gave a pest or weed control at 250 g/ha ([9]; post-emergence, Postemergence) of 70%, a pest or weed control at 31 g/ha ([9]; pre-emergence, Preemergence) of 5% and a pest or weed control at 62 g/ha ([9]; pre-emergence, Preemergence) of 15%. The pest or weed control at 125 g/ha ([9]; pre-emergence, Preemergence) was 30%, the pest or weed control at 250 g/ha ([9]; pre-emergence, Preemergence) was 55% and the plant injury at 31 g/ha [10, 11] was 5%. For the same compound, the plant injury at 62 g/ha ([10]; post-emergence, Postemergence) was 5%, the plant injury at 125 g/ha ([10]; post-emergence, Postemergence) was 5% and the plant injury at 250 g/ha ([10]; post-emergence, Postemergence) was 5%. The plant injury at 62 g/ha ([10]; pre-emergence, Preemergence) was 0%, the plant injury at 125 g/ha ([10]; pre-emergence, Preemergence) was 15% and the plant injury at 250 g/ha ([10]; pre-emergence, Preemergence) was 25%.
